# According to US20050065066A1, “Stabilised insulin compositions” (priority 2002, published 2005):
# Read-outs that look alike come from different tables or passages of the source.
# Legend:
# [1] = molecular target: T1, metal site of insulin R6 hexamers (Homo sapiens, UniProt P01308); details: taken from Huang et al., 1997; read-out: K4H3N; cited from earlier work
# T1 construct: human insulin comprising additional amino acids, i.e. more than 51 amino acids
# [2] = molecular target: T1, metal site of insulin R6 hexamers; assay: TZD-assay: fluorescence based displacement assay; format: binding; details: affinity towards the zinc site, TZD-assay; read-out: Kd(app)
# Experimental: The binding affinity of ligands to the metal site of insulin R6 hexamers are measured in a fluorescense based displacement assay. The fluorescence of 5-(4-dimethylaminobenzylidene)thiazolidine-2,4-dione (TZD) which is a ligand for the metal site of insulin R6 is quenched upon displacement from the metal site to the solution. Titration of a ligand to a stock solution of insulin R6 hexamers with this compound mounted in the metal site allows the binding affinity of these ligands to be determined measuring the fluorescence at 455 nm upon excitation at 410 nm.
# Stock solution: 0.02 mM human insulin, 0.007 mM Zn-acetate, 40 mM phenol, 0.01 mM TZD in 50 mM tris buffer adjusted to pH=8.0 with NaOH/ClO4^−.
# The ligand is dissolved in DMSO to a concentration of 5 mM and added in aliquots to the stock solution to final concentrations of 0-250 µM.
# Fluorescence measurements were carried out on a Perkin Elmer Spectrofluorometer LS50B. T main absorption band was excited at 410 nm and emission was detected at 455 nm. The resolution was 10 nm and 2.5 nm for excitation and emission, respectively.
# This equation is fitted to the datapoints ΔF(455 nm))=ΔFmax* [ligand]free/(KD(app)*(1+[TZD]/KTZD)+[ligand]free)) KD(app) is the apparent dissociation constant and Fmax is the fluorescence at maximal ligand concentration. The value of KTZD is measured separately to 230 nM
# Two different fitting-procedures can be used. One in which both parameters, KD(app) and Fmax, are adjusted to best fit the data and a second in which the value of Fmax is fixed (Fmax=1) and only KD(app) is adjusted. The given data are from the second fitting procedure. The Solver module of Microsoft Excel can be used to generate the fits from the data points.
# [3] = Disappearance rate from the subcutaneous depot following injection in pigs; format: in vivo; details: disappearance assay
# Source text: Formulations of the present invention were characterized by the disappearance rate from the subcutaneous depot following injection in pigs. Formulations of B28 Asp human insulin containing A14Tyr(^125I) B28 Asp human insulin were followed with an external γ-counter (Ribel et al., The pig as a model for subcutaneous absorption in man. In: Serrano-Ritos & Lefebre (Eds.): Diabetes (1985) proceedings ot the 12th congress of the international diabetes federation, Madrid, Spain, 1985 (Excerpta Medica, Amsterdam (1986) 891-896. Formulations of Insulin Aspart (0.6 mM, U100) containing 0.3 mM Zn^2+, 30 mM phenol, 2 mM phosphate buffer, and 1.6% glycerol, pH 7.4, were compared with the corresponding formulations containing 0.3 mM of the ligands shown below: where T50% is the time when 50% ot the A14Tyr(^125I) B28 Asp insulin has disappeared from the site of injection and Kd is the affinity of the ligand as measured by the TZD-assay described in “Analytical methods” below.
# [4] = Chemical stability of insulin formulations by RPC (reverse phase chromatography); format: physicochemical; details: formulated human insulin, 3 Zn2+ per hexamer
# Experimental: (§1) The chemical stability of insulin formulations of the invention was characterised by HPLC (RPC, reverse phase chromatography and SEC, size exclusion chromatography). As reference, insulin formulated without ligands of the invention but with 0.3% DMSO was also investigated and shown below: [drawing]
# FIG. 10. Reverse phase chromatography of formulated human insulin with 3 Zn^2+ per hexamer, 30 mM phenol, 150 mM mannitol, 3 mM phosphoric acid, sodium hydroxide to pH 7.4 and 0.3% DMSO corresponding to 3 ligands per hexamer at start (upper panel) and after storage for 2 weeks at 37° C. (lower panel): Preservatives before 20 min., “hydrophilic derivatives” (desamido-insulins) 20 min to main top insulin, “hydrophobic derivatives 1” main top to 64 min., and “hydrophobic derivatives 2” (insulin dimers) after 64 min.
# (§2) Storage in HPLC 1 ml vials at 45° C. (5 d), 37° C. (2 w), 30° C. (6 w), 25° C. (10 w), 15° C. (30 w) gave about the same increase of transformation products correlating to an increase in reactions constants of a factor 3-4 per 10 degree.
# RPC (reverse phase chromatography) on Waters SymmetryShield RP8 column, 150×4.6 mm and 3.5 μm, eluted by A: 0.2 M sodium sulfate+0.04 M sodium phosphate pH 7.2+10% acetonitrile and isocratically (i) or a gradient (g) of B: 70% acetonitrile [minutes/% B(i/g): 0/19, 21/24(i)(sudden change), 51/24(i), 81/39(g), 81.1/0(i), 82.3/19(i)] at flow of 0.9 mL/min and 30° C.
# [5] = Chemical stability of insulin formulations by SEC (size exclusion chromatography); format: physicochemical; details: formulated human insulin, 3 Zn2+ per hexamer
# Experimental: as §1, §2
# SEC (size exclusion chromatography) on Waters insulin HMWP column, 300×7.8 mm, eluted by 15:20:65 of acetic acid: acetonitrile: arginine 1 g/L at flow of 1 mL/min and ambient temperature.
# T1 sequence (P01308 25-54 limits assumed): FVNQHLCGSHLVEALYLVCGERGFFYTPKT
# T1 sequence (P01308 90-110 limits assumed): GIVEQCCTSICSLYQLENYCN
Kd [2] [nM],effect on insulin aspart disappearance from subcutaneous injection site [3],"hphil (hydrophilic derivatives, desamido-insulins) ([4]; 5° predicted)",hphob1 (hydrophobic derivatives 1) ([4]; 5° predicted),"hphob2 (hydrophobic derivatives 2, insulin dimers) ([4]; 5° predicted)","hphil (hydrophilic derivatives, desamido-insulins) ([4]; 15° C.) [% formed/year]",hphob1 (hydrophobic derivatives 1) ([4]; 15° C.) [% formed/year],"hphob2 (hydrophobic derivatives 2, insulin dimers) ([4]; 15° C.) [% formed/year]","hphil (hydrophilic derivatives, desamido-insulins) ([4]; 25° C.) [% formed/year]",hphob1 (hydrophobic derivatives 1) ([4]; 25° C.) [% formed/year],"hphob2 (hydrophobic derivatives 2, insulin dimers) ([4]; 25° C.) [% formed/year]","hphil (hydrophilic derivatives, desamido-insulins) ([4]; 30° C.) [% formed/year]",hphob1 (hydrophobic derivatives 1) ([4]; 30° C.) [% formed/year],"hphob2 (hydrophobic derivatives 2, insulin dimers) ([4]; 30° C.) [% formed/year]","hphil (hydrophilic derivatives, desamido-insulins) ([4]; 37° C.) [% formed/year]",hphob1 (hydrophobic derivatives 1) ([4]; 37° C.) [% formed/year],"hphob2 (hydrophobic derivatives 2, insulin dimers) ([4]; 37° C.) [% formed/year]","hphil (hydrophilic derivatives, desamido-insulins) ([4]; 45° C.) [% formed/year]",hphob1 (hydrophobic derivatives 1) ([4]; 45° C.) [% formed/year],"hphob2 (hydrophobic derivatives 2, insulin dimers) ([4]; 45° C.) [% formed/year]",SMILES,further results
,,,,,,,,,,,,,,,,,,,,"O=C(O)c1ccc([N+](=O)[O-])c(O)c1 [Example 4H3N, 3-hydroxy-4-nitro benzoic acid]",Kd [1]: 50000 nM
58,no effect,(0.293) % formed/year,(0.336) % formed/year,(0.062) % formed/year,1.02,1.28,0.38,2.60,6.14,0.78,4.07,4.42,1.65,9.88,19.5,4.68,20.4,43.8,17.5,O=C(O)/C=C/c1ccc(/C=C2\SC(=O)NC2=O)cc1 [Example 462],dimer ([5]; 5° predicted): (0.048) % formed/year; dimer ([5]; 15° C.): 0.28 % formed/year; dimer ([5]; 25° C.): 1.09 % formed/year; dimer ([5]; 30° C.): 2.17 % formed/year; dimer ([5]; 37° C.): 6.24 % formed/year; dimer ([5]; 45° C.): 21.2 % formed/year
3,no effect,,,,,,,,,,,,,,,,,,,"Cc1ccccc1Cn1c2ccccc2c2cc(-c3nn[nH]n3)ccc21 [Example 756, 9-(2-Methylbenzyl)-3-(2H-tetrazol-5-yl)-9H-carbazole]",
23,no effect,,,,,,,,,,,,,,,,,,,"O=C1NC(=O)/C(=C/c2cccc3ccccc23)S1 [Example 68, 5-Naphthalen-1-ylmethylenethiazolidine-2,4-dione]",
171,no effect,,,,,,,,,,,,,,,,,,,"O=C(O)c1ccc(Cn2c3ccccc3c3cc(-c4nn[nH]n4)ccc32)cc1 [Example 738, 9-(4-Carboxybenzyl)-3-(2H-tetrazol-5-yl)-9H-carbazole]",
383,no effect,(0.55) % formed/year,(0.19) % formed/year,(0.079) % formed/year,1.80,0.85,0.42,4.06,5.67,1.46,6.76,6.42,2.25,12.5,22.4,7.02,30.7,62.1,23.4,"O=C(O)c1cc2cc(Br)ccc2cc1O [Example 533, 7-bromo-3-hydroxy-2-naphthoic acid]",dimer ([5]; 5° predicted): (0.087) % formed/year; dimer ([5]; 15° C.): 0.45 % formed/year; dimer ([5]; 25° C.): 1.61 % formed/year; dimer ([5]; 30° C.): 2.86 % formed/year; dimer ([5]; 37° C.): 7.02 % formed/year; dimer ([5]; 45° C.): 26.3 % formed/year
